Columns and labels:
Type in all cases: in vivo, Balb/c mice
[1] = tested on: oxazolone-induced colitis mice; assay: Oxazolone-induced acute colitis in mice for ulcerative colitis (bodyweight, DAI, colon weight, length and density); conditions: PO BID 5 days, compound A30 1, 5 or 25 mg/kg, tofacitinib 10 mg/kg; for colon weight / colon length / colon density: Day 9 after sensitization; for colon weight: FIG. 3; for colon length: FIG. 4; for colon density: FIG. 5; for bodyweight change: FIG. 1; for DAI score: FIG. 2
Method: (§1) Compound A30 was evaluated in an oxazolone-induced colitis murine model, along with tofacitinib. Boirivant et al., J. Exp. Med. 1998, 188, 1929-39. Balb/c mice were randomly divided into 6 groups according to Table 1:4 treatment groups (Treatment Groups), 1 vehicle group (Vehicle Group), and 1 sham group (Sham Group). The mice in Treatment and Vehicle Groups were sensitized with 200 μL of 2% oxazolone in acetone and olive oil (1:4), followed by injection of 100 μL of 1.5% oxazolone into the rectum of each mouse on Day 5 after sensitization. The mice in Sham Group were sensitized with 200 μL of a mixture of acetone and olive oil (1:4) without oxazolone, followed by injection of 100 μL of 50% ethanol/water into the rectum of each mouse on Day 5 after sensitization. Before the injection into the rectum, each mouse was anesthetized intraperitoneally with tribromoethanol (0.3 mL, 1.25%). From Days 4 to 8 after sensitization, the mice in Sham and Vehicle Groups were each given 0.5% CMC-Na by gavage, and the mice in Treatment Groups were each given by gavage tofacitinib or compound A30 in 0.5% CMC-Na, respectively, according to the dosing schedule shown in Table 1.
The bodyweight of each mouse was measured daily. From Day 4 after sensitization, the fecal property and occult blood as determined with a fecal occult blood test (FOBT) of each mouse were measured daily to calculate a disease activity index (DAI) according to Table 2.
(§2) On Day 9 after sensitization, each mouse was euthanized and blood was collected from the heart. A serum was prepared and frozen for the determination of inflammatory factors.
(§3) The colon of each mouse was collected and photographed, and the colon length was measured and weighed after the removal of the content of the colon. A part of each colon collected was fixed using the Swiss roll technique in neutral paraformaldehyde for pathological scoring (Table 3) as described in Bialkowska et al., J. Vis. Exp. 2016, 113, e54161. The rest of the colon mucosa of each mouse was scraped and frozen for the determination of inflammatory factors.
Due to the inflammation, it is expected that the colon of an oxazolone-induced colitis mouse has an […], and increased density.

[2] = tested on: TNF-α; assay: TNF-α level in oxazolone-induced colitis mice (cytometric bead array); conditions: Day 9, PO BID 5 days, compound A30 1, 5 or 25 mg/kg, tofacitinib 10 mg/kg; for TNF-α level (intestinal mucosa): FIG. 7; for TNF-α level (serum): FIG. 9
Method: as §1, §2, §3
(§4) The IFN-γ and TNFα levels were analyzed using a BD™ cytometric bead array (CBA) kit.

[3] = tested on: IFN-γ; assay: IFN-γ level in oxazolone-induced colitis mice (cytometric bead array); conditions: Day 9, PO BID 5 days, compound A30 1, 5 or 25 mg/kg, tofacitinib 10 mg/kg; for IFN-γ level (intestinal mucosa): FIG. 8; for IFN-γ level (serum): FIG. 10
Method: as §1, §2, §3, §4

Row | Structure (SMILES) | colon weight [1] | colon length [1] | colon density [1] | bodyweight change [1] | DAI score [1] | TNF-α level (intestinal mucosa) [2] | TNF-α level (serum) [2] | IFN-γ level (intestinal mucosa) [3] | IFN-γ level (serum) [3]
1 | C[P@](=O)(CCc1cc(Cl)c(C(=O)N[C@@H](Cc2cccc(S(C)(=O)=O)c2)C(=O)O)c(Cl)c1)c1cccc(O)c1 [compound A30, (S)-2-(2,6-dichloro-4-(2-((S)-(3-hydroxyphenyl)(methyl)phosphoryl)ethyl)benz-amido)-3-(3-(methylsulfonyl)phenyl)propanoic acid] | able to reverse the disease effects | able to reverse the disease effects | able to reverse the disease effects | slowed the bodyweight loss | improved the DAI score | lowered | lowered | lowered | lowered
2 | C[C@@H]1CCN(C(=O)CC#N)C[C@@H]1N(C)c1ncnc2[nH]ccc12 [tofacitinib] | able to reverse the disease effects | able to reverse the disease effects | able to reverse the disease effects | slowed the bodyweight loss | improved the DAI score | lowered | lowered | lowered | lowered

From patent US20260294940A1, “PHOSPHORUS-CONTAINING COMPOUNDS FOR TREATING INFLAMMATORY BOWEL DIESEASE” (VivaVision Biotech, Inc., priority 2022, published 2026)
